ChEMBL document CHEMBL3774317, “Design and synthesis of novel tamoxifen analogues that avoid CYP2D6 metabolism” (Eur J Med Chem, 2016)

What was measured:
[1] = tested on: CCRF-CEM; experiment: Cytotoxicity against human CCRF-CEM cells assessed as cell growth at 10^-7 M after 48 hrs by SRB assay; format: functional; details: read-out: Activity
[2] = tested on: KM12; experiment: Cytotoxicity against human KM12 cells assessed as cell growth at 10^-6 M after 48 hrs by SRB assay; format: functional; details: KM12, 48 h, read-out: Activity
[3] = tested on: A498; experiment: Cytotoxicity against human A498 cells assessed as cell growth at 10^-8 M after 48 hrs by SRB assay; format: functional; details: A498, 48 h, read-out: Activity
[4] = Cytotoxicity against human OVCAR5 cells assessed as cell growth at 10^-4 M after 48 hrs by SRB assay; format: functional; details: OVCAR-5, 48 h, read-out: Activity
[5] = tested on: T47D; experiment: Cytotoxicity against human T47D cells assessed as cell growth at 10^-4 M after 48 hrs by SRB assay; format: functional; details: read-out: Activity
[6] = Cytotoxicity against human NCI-ADR-RES cells assessed as cell growth at 10^-5 M after 48 hrs by SRB assay; format: functional; details: read-out: Activity
[7] = tested on: ACHN; experiment: Cytotoxicity against human ACHN cells assessed as cell growth at 10^-7 M after 48 hrs by SRB assay; format: functional; details: read-out: Activity
[8] = Cytotoxicity against human SNB75 cells assessed as cell growth at 10^-6 M after 48 hrs by SRB assay; format: functional; details: SNB-75, 48 h, read-out: Activity
[9] = Cytotoxicity against human HCT15 cells assessed as cell growth at 10^-4 M after 48 hrs by SRB assay; format: functional; details: HCT-15, 48 h, read-out: Activity
[10] = Cytotoxicity against human SW620 cells assessed as cell growth at 10^-7 M after 48 hrs by SRB assay; format: functional; details: SW-620, 48 h, read-out: Activity
[11] = tested on: U-251; experiment: Cytotoxicity against human U251 cells assessed as cell growth at 10^-5 M after 48 hrs by SRB assay; format: functional; details: U-251, 48 h, read-out: Activity
[12] = Cytotoxicity against human UACC257 cells assessed as cell growth at 10^-4 M after 48 hrs by SRB assay; format: functional; details: UACC-257, 48 h, read-out: Activity
[13] = Cytotoxicity against human OVCAR5 cells assessed as cell growth at 10^-7 M after 48 hrs by SRB assay; format: functional; details: OVCAR-5, 48 h, read-out: Activity
[14] = tested on: A549; experiment: Cytotoxicity against human A549 cells assessed as cell growth at 10^-6 M after 48 hrs by SRB assay; format: functional; details: A549, 48 h, read-out: Activity
[15] = tested on: EKVX; experiment: Cytotoxicity against human EKVX cells assessed as cell growth at 10^-8 M after 48 hrs by SRB assay; format: functional; details: read-out: Activity
[16] = tested on: MCF7; experiment: Cytotoxicity against human MCF7 cells assessed as cell growth at 10^-5 M after 48 hrs by SRB assay; format: functional; details: MCF7, 48 h, read-out: Activity
[17] = Cytotoxicity against human SNB19 cells assessed as cell growth at 10^-8 M after 48 hrs by SRB assay; format: functional; details: SNB-19, 48 h, read-out: Activity
[18] = Cytotoxicity against human SF539 cells assessed as cell growth at 5 nM after 48 hrs by SRB assay; format: functional; details: SF-539, 48 h, read-out: Activity
[19] = tested on: T47D; experiment: Cytotoxicity against human T47D cells assessed as cell growth at 0.5 uM after 48 hrs by SRB assay; format: functional; details: read-out: Activity
[20] = tested on: A498; experiment: Cytotoxicity against human A498 cells assessed as cell growth at 50 nM after 48 hrs by SRB assay; format: functional; details: A498, 48 h, read-out: Activity
[21] = Cytotoxicity against human NCI-ADR-RES cells assessed as cell growth at 5 nM after 48 hrs by SRB assay; format: functional; details: read-out: Activity
[22] = Cytotoxicity against human SNB75 cells assessed as cell growth at 5 uM after 48 hrs by SRB assay; format: functional; details: SNB-75, 48 h, read-out: Activity
[23] = Cytotoxicity against human SW620 cells assessed as cell growth at 50 nM after 48 hrs by SRB assay; format: functional; details: SW-620, 48 h, read-out: Activity
[24] = tested on: M14; experiment: Cytotoxicity against human M14 cells assessed as cell growth at 50 nM after 48 hrs by SRB assay; format: functional; details: M14, 48 h, read-out: Activity
[25] = Metabolic stability in human hepatocytes assessed as remaining parent compound level at 10 uM after 3 hrs by LC/MS analysis; format: ADME, cell-based, Hepatocyte; details: read-out: Drug metabolism
[26] = tested on: KM12; experiment: Cytotoxicity against human KM12 cells assessed as cell growth at 50 nM after 48 hrs by SRB assay; format: functional; details: KM12, 48 h, read-out: Activity
[27] = Cytotoxicity against human NCI-ADR-RES cells assessed as cell growth at 50 nM after 48 hrs by SRB assay; format: functional; details: read-out: Activity
[28] = tested on: NCI-H522; experiment: Cytotoxicity against human NCI-H522 cells assessed as cell growth at 5 nM after 48 hrs by SRB assay; format: functional; details: NCI-H522, 48 h, read-out: Activity
[29] = Cytotoxicity against human HCT116 cells assessed as cell growth at 0.5 uM after 48 hrs by SRB assay; format: functional; details: HCT-116, 48 h, read-out: Activity
[30] = Cytotoxicity against human HL-60(TB) cells assessed as cell growth at 0.5 uM after 48 hrs by SRB assay; format: functional; details: HL-60, 48 h, read-out: Activity
[31] = Cytotoxicity against human BT549 cells assessed as cell growth at 50 uM after 48 hrs by SRB assay; format: functional; details: BT-549, 48 h, read-out: Activity
[32] = tested on: SK-MEL-2; experiment: Cytotoxicity against human SK-MEL-2 cells assessed as cell growth at 50 nM after 48 hrs by SRB assay; format: functional; details: SK-MEL-2, 48 h, read-out: Activity
[33] = tested on: A498; experiment: Cytotoxicity against human A498 cells assessed as cell growth at 50 uM after 48 hrs by SRB assay; format: functional; details: A498, 48 h, read-out: Activity
[34] = Cytotoxicity against human UACC257 cells assessed as cell growth at 5 uM after 48 hrs by SRB assay; format: functional; details: UACC-257, 48 h, read-out: Activity
[35] = Cytotoxicity against human HL-60(TB) cells assessed as cell growth at 50 uM after 48 hrs by SRB assay; format: functional; details: HL-60, 48 h, read-out: Activity
[36] = Cytotoxicity against human SKOV3 cells assessed as cell growth at 50 uM after 48 hrs by SRB assay; format: functional; details: SK-OV-3, 48 h, read-out: Activity
[37] = tested on: NCI-H322M; experiment: Cytotoxicity against human NCI-H322M cells assessed as cell growth at 5 uM after 48 hrs by SRB assay; format: functional; details: read-out: Activity
[38] = Cytotoxicity against human SW620 cells assessed as cell growth at 5 nM after 48 hrs by SRB assay; format: functional; details: SW-620, 48 h, read-out: Activity
[39] = Cytotoxicity against human OVCAR3 cells assessed as cell growth at 50 uM after 48 hrs by SRB assay; format: functional; details: OVCAR-3, 48 h, read-out: Activity
[40] = Cytotoxicity against human UO31 cells assessed as cell growth at 0.5 uM after 48 hrs by SRB assay; format: functional; details: UO-31, 48 h, read-out: Activity
[41] = Cytotoxicity against human OVCAR5 cells assessed as cell growth at 50 nM after 48 hrs by SRB assay; format: functional; details: OVCAR-5, 48 h, read-out: Activity
[42] = tested on: KM12; experiment: Cytotoxicity against human KM12 cells assessed as cell growth at 5 nM after 48 hrs by SRB assay; format: functional; details: KM12, 48 h, read-out: Activity
[43] = Cytotoxicity against human UACC62 cells assessed as cell growth at 50 nM after 48 hrs by SRB assay; format: functional; details: UACC-62, 48 h, read-out: Activity

C/C(=C(/c1ccc(O)cc1)c1ccc(OCCN2CCCC2)cc1)c1ccccc1
growth at 0.1 µM [1]: 113%
growth at 1 µM [2]: 95%
growth at 0.01 µM [3]: 66%
growth at 100 µM [4]: -85%
growth at 100 µM [5]: -67%
growth at 10 µM [6]: 25%
growth at 0.1 µM [7]: 97%
growth at 1 µM [8]: 76%
growth at 100 µM [9]: -100%
growth at 0.1 µM [10]: 103%
growth at 10 µM [11]: -33%
growth at 100 µM [12]: -99%
growth at 0.1 µM [13]: 90%
growth at 1 µM [14]: 106%
growth at 0.01 µM [15]: 91%
growth at 10 µM [16]: -47%
growth at 0.01 µM [17]: 104%

CCCCCCCCCC(=O)Oc1ccc(/C(=C(/C)c2ccccc2)c2ccc(OCCN3CCCC3)cc2)cc1
growth at 0.005 µM [18]: 105%
growth at 0.5 µM [19]: 46%
growth at 0.05 µM [20]: 53%
growth at 0.005 µM [21]: 101%
growth at 5 µM [22]: 69%
growth at 0.05 µM [23]: 97%
growth at 0.05 µM [24]: 94%
remaining at 3 h, 10 µM [25]: 36%
growth at 0.05 µM [26]: 98%
growth at 0.05 µM [27]: 96%
growth at 0.005 µM [28]: 101%
growth at 0.5 µM [29]: 71%
growth at 0.5 µM [30]: 75%
growth at 50 µM [31]: -76%
growth at 0.05 µM [32]: 101%
growth at 50 µM [33]: -84%
growth at 5 µM [34]: 101%
growth at 50 µM [35]: -70%
growth at 50 µM [36]: -88%
growth at 5 µM [37]: 85%
growth at 0.005 µM [38]: 96%
growth at 50 µM [39]: -84%
growth at 0.5 µM [40]: 61%
growth at 0.05 µM [41]: 94%
growth at 0.005 µM [42]: 101%
growth at 0.05 µM [43]: 99%
